Paper PMC8537901, “Progesterone Metabolism by Human and Rat Hepatic and Intestinal Tissue” (Pharmaceutics, 2021)

Columns and labels:
[1] = Tissue homogenate stability assay, human liver homogenate; format: in vitro ADME; conditions: for half-life: human, liver homogenate
Procedure: (§1) Progesterone stability was determined in rat and human intestinal mucosa and liver homogenates. In addition, progesterone was incubated in stock solution containing phosphate-buffered saline, 0.1% Tween80 and 1% DMSO. […] Stability assays were carried out either in the presence or absence of 1mM of the cofactor NADPH. The physiological concentration of NADPH was approximately 100 µM [26]. However, for the purpose of this research, a concentration of 1 mM was used to ensure an excess of co-factor was available and not rate-limited throughout the incubation period.
(§2) The protein concentration for the rat and human liver and intestinal homogenates was adjusted to 5 mg/mL. […] A final concentration of 1 µM progesterone and 1 mM NADPH (where required) was added to the homogenate, and samples were immediately taken (t–0). Next, the homogenate solution was incubated with shaking (700 rpm) at 37 °C, and further samples were taken at timed intervals. To stop the enzymatic reaction, samples were immediately diluted in ice-cold acetonitrile at a ratio of 1:3 sample:acetonitrile. The samples were then centrifuged at 3000 rpm for 30 min to pellet the homogenates.

[2] = Tissue homogenate stability assay, rat liver homogenate; format: in vitro ADME; conditions: for half-life: Sprague Dawley, rat
Procedure: as §1, §2

[3] = Tissue homogenate stability assay, human intestinal homogenate; format: in vitro ADME; conditions: for half-life: human
Procedure: as §1, §2

[4] = Tissue homogenate stability assay, rat intestinal homogenate; format: in vitro ADME; conditions: for half-life: Sprague Dawley, rat
Procedure: as §1, §2

[5] = Stability in control media (phosphate-buffered saline, 0.1% Tween80, 1% DMSO, pH 7.4); format: physicochemical
Procedure: as §1

[6] = Human cytosol stability assay, liver cytosol; conditions: for half-life at 1 µM: human, t1/2 (min); for effect of inhibitor on rate of progesterone depletion: presence of NADPH, inhibitor 100 µM
Procedure: (§3) Progesterone stability was assessed in intestinal and liver cytosol in the presence or absence of NADPH cofactor and specific enzyme inhibitors. For both intestinal and liver cytosol, the protein concentration was adjusted to 0.5 mg/mL. Both human liver and intestinal cytosol (with 0.1 mM EDTA) were then pre-incubated for 10 min in a thermomixer comfort by Eppendorf in an RNAse/DNAse 96-well plate until reaching a temperature of 37 °C. Next, a final concentration of 100 µM of enzyme inhibitors were added to the cytosol. […] The enzyme inhibitors used during this study were: Epalrestat (AKR1B1 inhibitor), Diazepam (AKR1C inhibitor), Finasteride (AKR1D1 inhibitor), Diazepam + Flufenamic Acid (AKR1C inhibitor cocktail), Menadione (aldehyde oxidase inhibitor) and Allopurinol (xanthine oxidase inhibitor).
(§4) Next, the mixtures were incubated for an additional 5 min, and NADPH was added at a final concentration of 1 mM. Finally, progesterone (1 µM) was added and mixed by pipetting to initiate the reaction. Immediately following reaction initiation, a 50 µL sample was taken. The sample was then diluted in 100 µL of acetonitrile to terminate enzymatic reaction. Samples were centrifuged at 4 °C and 2500 rpm for 30 min. Following centrifugation, the supernatant was removed and diluted 1:1 with milli-Q water. […] This process was followed for sampling at all required time intervals.
(§5) Liquid chromatography with tandem mass spectrometry (LC MS/MS) was used to analyse samples obtained from both cytosol and homogenate stability assays (see Appendix A Figure A1 for example spectra). […] The column used was Aquity HSS T3 (1.8 µm) 2.1 × 50 mm (Water Ltd., Herts, UK), and the samples were run with an injection volume of 8 µL at 70 °C. A solvent system and gradient with a flow rate of 600 µL/minute was used to perform this analysis. The mobile phase consisted of 10 mM ammonium formate with 0.1% v/v formic acid in water (A) and acetonitrile (B).
(§6) The percent of substrate present at each timepoint relative to the 0 min sample was calculated from the LC-MS/MS peak area ratios (compound peak area/internal standard peak area). […] The Kolmogorov–Smirnov test was used to assess normality followed by Student’s t-test. Results were considered statistically significant when p < 0.05.

[7] = Human cytosol stability assay, intestinal cytosol; conditions: for half-life at 1 µM: human, human intestinal cytosol, t1/2 (min)
Procedure: as §3, §4, §5, §6

[8] = human liver homogenate, no NADPH
[9] = rat liver homogenate + 1 mM NADPH
[10] = human intestinal homogenate + 1 mM NADPH
[11] = human intestinal homogenate, no NADPH
[12] = rat intestinal homogenate + 1 mM NADPH
[13] = human liver cytosol + NADPH + AKR1B1 inhibitor (Epalrestat 100 µM)
[14] = human liver cytosol + NADPH + AKR1C1 cocktail (Diazepam + Flufenamic Acid)
[15] = human liver cytosol + NADPH, no inhibitor
[16] = human intestinal cytosol + NADPH + AKR1B inhibitor (Epalrestat 100 µM)
[17] = human intestinal cytosol + NADPH, no inhibitor

CC(=O)[C@H]1CC[C@H]2[C@@H]3CCC4=CC(=O)CC[C@]4(C)[C@H]3CC[C@]12C [Progesterone]
% Drug Remaining After 60 min ([1]; human liver homogenate + 1 mM NADPH): 0.27 ± 0.26%
% of original concentration remaining ([1]; human liver homogenate + NADPH, within 10 min of incubation): less than 2%
% of the drug remaining ([1]; human liver homogenate, absence of NADPH, after two hours of incubation): over 40%
% Drug Remaining After 60 min [1, 8]: 43.32 ± 4.84%
half-life ([1]; human liver homogenate + 1 mM NADPH, 1 µM progesterone, 5 mg/mL protein, 37 °C): 0.045 ± 0.000833 h
half-life [1, 8]: 0.649 ± 0.195 h
half-life ([2]; liver homogenate, pH 7.4, rat liver homogenate, no NADPH): 0.663 ± 0.169 h
half-life ([2]; rat liver homogenate, pH 7.4, rat liver homogenate + 1 mM NADPH): 0.045 h
t1/2 [2, 9]: 2.72 ± 0.05 min
% Drug Remaining After 60 min [2, 9]: 0.03 ± 0.0005%
% of original concentration remaining ([2]; rat liver homogenate + NADPH, within 10 min of incubation): less than 2%
% of the drug remaining ([2]; rat liver homogenate, absence of NADPH, after two hours of incubation): over 40%
% Drug Remaining After 60 min ([2]; rat liver homogenate, no NADPH): 46.04 ± 0.69%
t1/2 [3, 10]: 2.6203 ± 0.4568 h
% Drug Remaining After 60 min [3, 10]: 73.92 ± 5.11%
% Drug Remaining After 60 min ([3]; human intestinal homogenate + 1 mM NADPH, listed as progesterone): 74%
% Drug Remaining After 60 min [3, 11]: 75.82 ± 9.35%
% Drug Remaining After 60 min ([3]; human intestinal homogenate, no NADPH, listed as progesterone): 76%
half-life ([3]; human intestinal homogenate, human intestinal homogenate + 1 mM NADPH): 2.62 h
half-life [3, 11]: 2.6 ± 0.229 h
half-life ([4]; rat intestinal homogenate, pH 7.4, rat intestinal homogenate + 1 mM NADPH): 3.29 h
half-life ([4]; rat intestinal homogenate, pH 7.4, rat intestinal homogenate, no NADPH): 5.87 ± 0.614 h
t1/2 [4, 12]: 3.2938 ± 0.0485 h
% Drug Remaining After 60 min [4, 12]: 76.67 ± 4.72%
% Drug Remaining After 60 min ([4]; rat intestinal homogenate + 1 mM NADPH, listed as progesterone): 77%
% Drug Remaining After 60 min ([4]; rat intestinal homogenate, no NADPH): 90.93 ± 2.19%
% Drug Remaining After 60 min ([4]; rat intestinal homogenate, no NADPH, listed as progesterone): over 90%
% detectable in control media ([5]; after 2 h in control media): 99%
time stable in stock solution ([5]; phosphate-buffered saline, 0.1% Tween80, 1% DMSO, pH 7.4, 1 µM): up to 6 h
t1/2 [6, 13]: 0.3135 ± 0.016 h
% Drug Remaining After 60 min [6, 13]: 6.6 ± 6.24%
t1/2 [6, 14]: 0.5927 ± 0.111 h
% Drug Remaining After 60 min [6, 14]: 33.5 ± 1.72%
% Drug Remaining After 60 min ([6]; human liver cytosol + NADPH + AKR1C1 inhibitor (Diazepam 100 µM)): 0.11 ± 0.04%
% Drug Remaining After 60 min ([6]; human liver cytosol + NADPH + AKR1D1 inhibitor (Finasteride 100 µM)): 7.85 ± 6.31%
% Drug Remaining After 60 min ([6]; human liver cytosol + NADPH + AOX inhibitor (Menadione 100 µM)): 0.97 ± 0.88%
t1/2 [6, 15]: 0.2288 ± 0.0135 h
% Drug Remaining After 60 min [6, 15]: 0.04 ± 0.01%
% Drug Remaining After 60 min ([6]; human liver cytosol, absence of NADPH, + AOX inhibitor (Menadione 100 µM)): 69.14 ± 2.91%
% Drug Remaining After 60 min ([6]; human liver cytosol, absence of NADPH, + XAO inhibitor (Allopurinol 100 µM)): 57.09 ± 2.01%
half-life at 1 µM ([6]; human liver cytosol, human liver cytosol + NADPH + AKR1C1 cocktail (Diazepam + Flufenamic Acid)): 0.593 h
half-life at 1 µM ([6]; human liver cytosol, human liver cytosol + NADPH, no inhibitor): 0.217 h
half-life at 1 µM ([6]; human liver cytosol, liver cytosol section (Figure 4), absence of NADPH, no inhibitor, line printed as Human intestinal Cytosol): 1.72 ± 0.156 h
half-life at 1 µM ([6]; human liver cytosol, with Allopurinol (xanthine oxidase inhibitor), 100 µM, human liver cytosol, absence of NADPH, + XAO inhibitor (Allopurinol 100 µM)): 1.66 ± 0.152 h
half-life at 1 µM ([6]; human liver cytosol, with Diazepam (AKR1C1 inhibitor), 100 µM, human liver cytosol + NADPH + AKR1C1 inhibitor (Diazepam 100 µM)): 0.235 ± 0.004 h
half-life at 1 µM ([6]; human liver cytosol, with Epalrestat (AKR1B1 inhibitor), 100 µM, human liver cytosol + NADPH + AKR1B1 inhibitor (Epalrestat 100 µM)): 0.3 h
half-life at 1 µM ([6]; human liver cytosol, with Finasteride (AKR1D1 inhibitor), 100 µM, human liver cytosol + NADPH + AKR1D1 inhibitor (Finasteride 100 µM)): 0.308 ± 0.0283 h
half-life at 1 µM ([6]; human liver cytosol, with Menadione (aldehyde oxidase inhibitor), 100 µM, human liver cytosol, absence of NADPH, + AOX inhibitor (Menadione 100 µM)): 2.21 ± 0.0782 h
half-life at 1 µM ([6]; liver cytosol, with Menadione 100 µM (aldehyde oxidase inhibitor), human liver cytosol + NADPH + AOX inhibitor (Menadione 100 µM)): 0.258 ± 0.0338 h
% Drug Remaining After 60 min ([6]; liver cytosol section (Figure 4), absence of NADPH, no inhibitor, line printed as Human intestinal Cytosol): 56.6 ± 2.07%
t1/2 [7, 16]: 3.0687 ± 0.3158 h
% Drug Remaining After 60 min [7, 16]: 80.87 ± 7.84%
% Drug Remaining After 60 min ([7]; human intestinal cytosol + NADPH + AKR1C1 inhibitor (Diazepam 100 µM)): 77.38 ± 6.37%
% Drug Remaining After 60 min ([7]; human intestinal cytosol + NADPH + AKR1C cocktail (Diazepam + Flufenamic Acid)): 73.56 ± 3.69%
% Drug Remaining After 60 min ([7]; human intestinal cytosol + NADPH + AKR1D1 inhibitor (Finasteride 100 µM)): 79.56 ± 4.44%
t1/2 [7, 17]: 2.1587 ± 0.0458 h
% Drug Remaining After 60 min [7, 17]: 72.51 ± 6.48%
half-life at 1 µM [7, 17]: 2.16 h
half-life at 1 µM ([7]; with Epalrestat (AKR1B inhibitor), 100 µM, human intestinal cytosol + NADPH + AKR1B inhibitor (Epalrestat 100 µM)): 3.07 h
half-life at 1 µM ([7]; with Finasteride (AKR1D1 inhibitor), 100 µM, human intestinal cytosol + NADPH + AKR1D1 inhibitor (Finasteride 100 µM)): 3.03 ± 0.0732 h

CN1C(=O)CN=C(c2ccccc2)c2cc(Cl)ccc21 [diazepam, Diazepam]
effect of inhibitor on rate of progesterone depletion ([6]; human liver cytosol): no significant difference

CC1=CC(=O)c2ccccc2C1=O [Menadione]
effect of inhibitor on rate of progesterone depletion ([6]; human liver cytosol): not deemed significant
